Results from patent US9670469B2, “UDP-glycosyltransferase derived from ginseng and use thereof” (KOREA ADVANCED INSTITUTE OF SCIENCE AND TECHNOLOGY, priority 2012, dated 2017).

Legend:
[1] = molecular target: T1, PgUGT94B1 (Panax ginseng, UniProt A0A0A6ZFY4); assay: In vitro glycosyltransferase assay with purified recombinant PgUGT94B1 and UDP-glucose; type: biochemical; conditions: 30 μg enzyme, 5 mM ginsenoside, 50 mM UDP-glucose, 35° C., 12 hours
T1 construct: GST (N); made in house; host or cells: E. coli BL21-CodonPlus (DE3)-RIL
T1 sequence (A0A0A6ZFY4 1-442): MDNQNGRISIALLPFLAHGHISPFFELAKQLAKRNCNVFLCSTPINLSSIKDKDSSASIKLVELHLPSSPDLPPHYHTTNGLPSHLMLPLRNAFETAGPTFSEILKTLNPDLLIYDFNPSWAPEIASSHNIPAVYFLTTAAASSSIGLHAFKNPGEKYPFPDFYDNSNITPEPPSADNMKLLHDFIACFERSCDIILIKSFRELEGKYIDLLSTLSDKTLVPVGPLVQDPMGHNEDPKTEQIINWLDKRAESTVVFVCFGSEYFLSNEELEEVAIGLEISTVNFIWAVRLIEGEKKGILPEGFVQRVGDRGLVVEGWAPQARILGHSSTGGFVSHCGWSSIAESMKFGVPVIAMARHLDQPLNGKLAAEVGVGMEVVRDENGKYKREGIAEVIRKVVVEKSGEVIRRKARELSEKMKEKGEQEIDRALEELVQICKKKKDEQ
Experimental: (§1) A glycosyltransferase assay was performed in a reaction buffer (10 mM PBS buffer, pH 7) containing the purified PgUGT74A1 or PgUGT94B1 (30 μg), a ginsenoside compound (5 mM) and UDP-glucose (50 mM).
(§2) The reaction mixture was incubated at 35° C. for 12 hours, and then the products were analyzed by thin-layer chromatography (TLC) or high performance liquid chromatography (HPLC).
(§3) TLC analysis was performed using a mobile phase (acetone:methanol:DDW=65:35:10 vol/vol) and a 60F254 silica gel plate (Merck, Germany). The resolved product on the TLC plate was detected by spraying the plate with 10% (vol/vol) sulfuric acid (H2SO4) and heating it at 110° C. for 5 minutes.
(§4) HPLC analysis was performed using ODS (2) C18 column (Phenomenex, USA). Water and acetonitrile gradient application time; and a component ratio are as follows: at a flow rate of 1 ml per minute for 0 minute, 68% water and 32% acetonitrile; 8 minutes, 35% water and 65% acetonitrile; 12 minutes, 0% water and 100% acetonitrile; 20 minutes, 0% water and 100% acetonitrile; 20.1 minutes, 68% water and 32% acetonitrile; and 28 minutes, 68% water and 32% acetonitrile.
(§5) Ginsenosides were detected by using a UV-detector (Younglin, Korea) at a wavelength of 203 nm.
First, the recombinant PgUGT of Example 1, PgUGT94B1, was incubated with 10 different types of ginsenosides (PPD, C-K, Rh2, F2, Rg3, Rd, Rg2, Rh1, F1 and PPT) in the presence of UDP-glucose, and then the products converted by the recombinant PgUGT were analyzed by TLC.

[2] = molecular target: T2, PgUGT74A1 (Panax ginseng, UniProt A0A0A6ZFR4); assay: In vitro glycosyltransferase assay with purified recombinant PgUGT74A1 and UDP-glucose; type: biochemical; conditions: for ginsenoside into which the substrate is converted by PgUGT74A1: 30 μg enzyme, 5 mM ginsenoside, 50 mM UDP-glucose, 35° C., 12 hours
T2 construct: GST (N); made in house; host or cells: E. coli BL21-CodonPlus (DE3)-RIL
T2 sequence (A0A0A6ZFR4 1-451): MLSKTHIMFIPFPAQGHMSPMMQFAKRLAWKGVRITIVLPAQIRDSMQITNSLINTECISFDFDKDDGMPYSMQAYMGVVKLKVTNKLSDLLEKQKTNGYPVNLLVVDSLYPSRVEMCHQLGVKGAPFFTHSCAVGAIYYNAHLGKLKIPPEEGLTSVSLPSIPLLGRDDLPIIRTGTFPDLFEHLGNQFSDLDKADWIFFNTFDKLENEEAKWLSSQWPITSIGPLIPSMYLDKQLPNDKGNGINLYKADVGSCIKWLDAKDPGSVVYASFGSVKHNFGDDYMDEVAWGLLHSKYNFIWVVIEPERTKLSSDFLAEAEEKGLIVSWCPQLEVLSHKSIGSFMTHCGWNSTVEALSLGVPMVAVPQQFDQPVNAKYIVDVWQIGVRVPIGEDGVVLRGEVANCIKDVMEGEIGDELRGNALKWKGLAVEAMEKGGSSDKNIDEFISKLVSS
Experimental: as §1, §2, §3, §4, §5
First, the recombinant PgUGT of Example 1, PgUGT74A1, was incubated with 10 different types of ginsenosides (PPD, C-K, Rh2, F2, Rg3, Rd, Rg2, Rh1, F1 and PPT) in the presence of UDP-glucose, and the products converted by the recombinant PgUGT were analyzed by TLC.

[3] = test system: PgUGT74A1 and PgUGT94B1; assay: Both enzymes reacted with the substrate in a single reaction tube, HPLC; type: biochemical, Panax ginseng; conditions: UDP-Glc
Experimental: PPD (upper panel) or C-K (lower panel) was incubated with both of PgUGT74A1 and PgUGT94B1 in the presence of UDP-Glc. Then the reaction mixture was analyzed by HPLC. […] Rg3 and Rd converted by the above two enzymes are marked as black triangles;
as §1, §2, §4, §5
In order to confirm this, the above two enzymes were reacted with PPD as a substrate in a single reaction tube. […] In addition, the two enzymes were reacted with C-K as a substrate in a single reaction tube.

[4] = test system: PgPPDS (protopanaxadiol synthase); assay: Quantitative RT-PCR of PgPPDS in ginseng leaf after MeJA spraying; type: in vivo, Panax ginseng; conditions: ginseng leaves, 200 μM MeJA sprayed everyday for 5 days, sampled 6th day; normalized to tubulin
Experimental: (§6) Total RNA was isolated from the leaf or root of 15-month-old ginseng using a spectrum plant total RNA kit (Sigma-Aldrich). 200 μM methyl jasmonate (MeJA) was sprayed onto the leaves of ginseng everyday for a total of 5 days, and samples were collected on the 6th day. The 1 μg of total RNA was used for cDNA synthesis.
(§7) Expression levels of different genes were examined by a quantitative RT-PCR using the primer sets listed in the following Table 2, and the results were normalized to the expression level of tubulin.
(§8) The 15-month old ginseng grown in a growth chamber under LD conditions was collected, and MeJA was sprayed onto its leaves everyday for a total of 5 days. To analyze expression level of the ginsenoside biosynthetic genes, samples were collected on the 6th days. […] However, expression of PgPPTS was not induced by MeJA under the conditions of the present invention.

[5] = test system: PgPPTS (protopanaxatriol synthase); assay: Quantitative RT-PCR of PgPPTS in ginseng leaf after MeJA spraying; type: in vivo, Panax ginseng; conditions: ginseng leaves, 200 μM MeJA sprayed everyday for 5 days, sampled 6th day; normalized to tubulin
Experimental: as §6, §7, §8

[6] = test system: PgUGT74A1; assay: Quantitative RT-PCR of PgUGT74A1 in ginseng leaf after MeJA spraying; type: in vivo, Panax ginseng; conditions: ginseng leaves, 200 μM MeJA sprayed everyday for 5 days, sampled 6th day; normalized to tubulin
Experimental: as §6, §7, §8

[7] = test system: PgDS (dammarenediol-II synthase); assay: Quantitative RT-PCR of PgDS in ginseng leaf after MeJA spraying; type: in vivo, Panax ginseng; conditions: ginseng leaves, 200 μM MeJA sprayed everyday for 5 days, sampled 6th day; normalized to tubulin
Experimental: as §6, §7, §8

[8] = test system: PgUGT94B1; assay: Quantitative RT-PCR of PgUGT94B1 in ginseng leaf after MeJA spraying; type: in vivo, Panax ginseng; conditions: ginseng leaves, 200 μM MeJA sprayed everyday for 5 days, sampled 6th day; normalized to tubulin
Experimental: as §6, §7, §8

[9] = test system: ginseng; assay: Concentrations of 4 major ginsenosides after spraying MeJA onto the leaf of ginseng; type: in vivo, Panax ginseng
From the text: MeJA was sprayed on the leaf everyday for a total of 5 days, and on the 6th day after the start of the treatment, samples were collected for the expression analysis. […] Error bars show a standard deviation (SD) of three biological replicates; and
as §8
In this regard, the concentrations of 4 major ginsenosides were measured after spraying MeJA onto the leaf of ginseng. The treatment of MeJA increased the concentrations of two PPD-type ginsenosides, Rd and Rb1, by 1.55 and 1.14 times respectively (FIG. 6c). In addition, the treatment of MeJA increased the concentrations of two PPT-type ginsenosides, Rg1 and Re, by 2.61 and 1.45 times respectively.

SMILES | ginsenoside into which the substrate is converted by PgUGT94B1 ([1]; HPLC) | ginsenoside into which the substrate is converted by PgUGT74A1 ([2]; TLC) | ginsenoside into which the substrate is converted by PgUGT74A1 plus PgUGT94B1 [3] | ginsenoside into which the substrate is converted by PgUGT94B1 ([1]; TLC) | ginsenoside into which the substrate is converted by PgUGT74A1 ([2]; HPLC) | other results
CC(C)=CCC[C@](C)(O[C@@H]1O[C@H](CO)[C@@H](O)[C@H](O)[C@H]1O)[C@H]1CC[C@]2(C)[C@@H]1[C@H](O)C[C@@H]1[C@@]3(C)CC[C@H](O)C(C)(C)[C@@H]3CC[C@]12C [C-K, Compound K] | did not convert | ginsenoside F2 | Rd | – | – | –
CC/C=C\C[C@H]1C(=O)CC[C@@H]1CC(=O)OC [MeJA, Methyl (1R,2R)-3-Oxo-2-(2Z)-2-pentenyl-cyclopentaneacetate] | – | – | – | – | – | expression of PgPPDS [4]: enhanced; expression of PgPPTS [5]: not induced; expression level of PgUGT74A1 [6]: higher expression level; expression of PgDS [7]: enhanced; expression level of PgUGT94B1 [8]: higher expression level; increase of the concentration of ginsenoside Rb1 ([9]; PPD-type ginsenoside): 1.14 times; increase of the concentration of ginsenoside Rd ([9]; PPD-type ginsenoside): 1.55 times; increase of the concentration of ginsenoside Re ([9]; PPT-type ginsenoside): 1.45 times; increase of the concentration of ginsenoside Rg1 ([9]; PPT-type ginsenoside): 2.61 times
CC(C)=CCC[C@](C)(O)[C@H]1CC[C@]2(C)[C@@H]1[C@H](O)C[C@@H]1[C@@]3(C)CC[C@H](O[C@@H]4O[C@H](CO)[C@@H](O)[C@H](O)[C@H]4O)C(C)(C)[C@@H]3CC[C@]12C [ginsenoside Rh2] | ginsenoside Rg3 | – | – | ginsenoside Rg3 | did not convert | –
CC(C)=CCCC(C)(O)[C@H]1CC[C@]2(C)[C@@H]1[C@H](O)C[C@@H]1[C@@]3(C)CC[C@H](O)C(C)(C)[C@@H]3CC[C@]12C (stereo in doubt) [PPD, Protopanaxadiol] | did not convert | ginsenoside Rh2 | Rg3 | – | ginsenoside Rh2 | glycosylation by PgUGT74A1 of the hydroxyl groups at the C-12 and C-20 positions ([2]; regioselectivity, positions other than C-3 of PPD): not glycosylated
CC(C)=CCC[C@](C)(O)[C@H]1CC[C@]2(C)[C@@H]1[C@H](O)C[C@@H]1[C@@]3(C)CC[C@H](O)C(C)(C)[C@@H]3[C@@H](O)C[C@]12C [PPT, Protopanaxatriol] | – | – | – | – | – | glycosylation by PgUGT74A1 of the hydroxyl groups at the C-3, C-6, C-12 and C-20 positions ([2]; regioselectivity, PPT): not glycosylated
CC(C)=CCC[C@](C)(O[C@@H]1O[C@H](CO)[C@@H](O)[C@H](O)[C@H]1O)[C@H]1CC[C@]2(C)[C@@H]1[C@H](O)C[C@@H]1[C@@]3(C)CC[C@H](O[C@@H]4O[C@H](CO)[C@@H](O)[C@H](O)[C@H]4O)C(C)(C)[C@@H]3CC[C@]12C [ginsenoside F2] | Rd | – | – | ginsenoside Rd | did not convert | –
